Data from ChEMBL document CHEMBL1150477, “Development of angiotensin II antagonists with equipotent affinity for human AT1 and AT2 receptor subtypes” (Bioorg Med Chem Lett, 1994).
Where a chain is given by its changes, count along the chain named.

Legend:
[1] = target: T1, Type-2 angiotensin II receptor (Homo sapiens, UniProt P50052); assay: […] inhibitory concentration against AT2 receptor of human adrenal membrane
T1 sequence (P50052 whole entry): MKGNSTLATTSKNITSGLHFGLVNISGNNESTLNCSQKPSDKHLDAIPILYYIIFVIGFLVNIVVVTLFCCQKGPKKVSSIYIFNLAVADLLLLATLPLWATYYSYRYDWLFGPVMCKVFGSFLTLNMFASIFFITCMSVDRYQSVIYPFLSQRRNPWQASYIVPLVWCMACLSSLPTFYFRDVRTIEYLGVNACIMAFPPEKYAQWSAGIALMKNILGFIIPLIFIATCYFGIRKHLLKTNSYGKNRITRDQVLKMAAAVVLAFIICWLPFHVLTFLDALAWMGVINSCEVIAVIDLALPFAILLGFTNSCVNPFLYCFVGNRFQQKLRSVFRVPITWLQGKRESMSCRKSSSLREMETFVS

[2] = target: T2, Type-2 angiotensin II receptor (Rattus norvegicus, UniProt P35351); assay: […] inhibitory concentration against AT2 receptor of rat adrenal membrane
T2 sequence (P35351 whole entry): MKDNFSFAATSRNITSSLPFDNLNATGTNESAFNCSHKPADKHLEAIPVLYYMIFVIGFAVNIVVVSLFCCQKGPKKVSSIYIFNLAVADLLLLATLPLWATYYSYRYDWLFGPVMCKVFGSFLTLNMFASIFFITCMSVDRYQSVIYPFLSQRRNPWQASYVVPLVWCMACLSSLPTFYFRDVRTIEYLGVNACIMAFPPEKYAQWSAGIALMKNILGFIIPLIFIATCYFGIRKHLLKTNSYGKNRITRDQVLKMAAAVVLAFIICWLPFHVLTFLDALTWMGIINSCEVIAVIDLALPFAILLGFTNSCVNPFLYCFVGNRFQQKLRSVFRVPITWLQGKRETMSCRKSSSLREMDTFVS

[3] = target: T3, Type-1 angiotensin II receptor (Oryctolagus cuniculus, UniProt P34976); assay: […] inhibitory concentration against Angiotensin II receptor, type 1 of rabbit aorta membrane
T3 sequence (P34976 whole entry): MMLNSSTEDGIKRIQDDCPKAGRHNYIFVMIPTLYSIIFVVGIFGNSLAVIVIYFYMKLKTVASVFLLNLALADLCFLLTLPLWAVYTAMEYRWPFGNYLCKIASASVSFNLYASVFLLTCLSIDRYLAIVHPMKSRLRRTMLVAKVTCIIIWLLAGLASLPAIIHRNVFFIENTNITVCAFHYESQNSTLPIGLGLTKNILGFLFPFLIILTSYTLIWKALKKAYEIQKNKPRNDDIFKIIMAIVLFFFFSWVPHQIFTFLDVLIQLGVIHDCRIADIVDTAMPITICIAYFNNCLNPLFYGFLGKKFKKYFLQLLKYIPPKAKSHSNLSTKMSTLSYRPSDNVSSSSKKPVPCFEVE

[4] = target: T2, Type-2 angiotensin II receptor; assay: […] inhibitory concentration against Angiotensin II, type 2 of rat midbrain membrane
[5] = target: T4, Angiotensin II receptor (AT-1) type-1 (Rattus norvegicus, UniProt P29089+P25095); assay: […] inhibitory concentration against Angiotensin II receptor, type 1 of rat adrenal membrane
T4 sequence (P29089 whole entry): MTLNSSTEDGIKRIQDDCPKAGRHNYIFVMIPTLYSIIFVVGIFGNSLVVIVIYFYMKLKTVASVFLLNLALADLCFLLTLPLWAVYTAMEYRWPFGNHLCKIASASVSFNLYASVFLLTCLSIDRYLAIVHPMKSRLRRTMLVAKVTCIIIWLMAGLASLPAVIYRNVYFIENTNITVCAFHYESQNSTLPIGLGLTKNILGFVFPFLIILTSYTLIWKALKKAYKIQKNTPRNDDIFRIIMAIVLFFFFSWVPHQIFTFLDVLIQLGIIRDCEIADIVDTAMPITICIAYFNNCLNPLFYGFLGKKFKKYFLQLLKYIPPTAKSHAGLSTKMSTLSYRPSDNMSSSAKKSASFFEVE
T4 sequence (P25095 whole entry): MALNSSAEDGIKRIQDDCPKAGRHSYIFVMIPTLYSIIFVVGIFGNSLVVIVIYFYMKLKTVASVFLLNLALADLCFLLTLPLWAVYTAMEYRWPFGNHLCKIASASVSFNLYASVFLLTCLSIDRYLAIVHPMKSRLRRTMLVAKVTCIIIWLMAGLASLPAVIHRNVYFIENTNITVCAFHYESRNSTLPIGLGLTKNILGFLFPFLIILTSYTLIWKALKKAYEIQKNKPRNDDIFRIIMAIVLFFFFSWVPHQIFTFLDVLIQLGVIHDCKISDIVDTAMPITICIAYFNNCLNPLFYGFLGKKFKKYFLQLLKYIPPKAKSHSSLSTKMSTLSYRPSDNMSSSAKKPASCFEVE

Oryctolagus cuniculus = species on record: Oryctolagus cuniculus; assay: Ratio of inhibitory concentration against AT2 receptor of rat midbrain to AT1 receptor of rabbit aorta
[6] = target: Angiotensin II receptor (Homo sapiens) (UniProt P30556+P50052); assay: Ratio of inhibitory concentration against AT2 receptor and AT1 receptor of human adrenal membrane
[7] = target: Angiotensin II receptor (Rattus norvegicus) (UniProt P29089+P25095+P35351); assay: Ratio of inhibitory concentration against AT2 receptor and AT1 receptor of rat adrenal membrane
[8] = target: T5, Type-1 angiotensin II receptor (Homo sapiens, UniProt P30556); assay: […] inhibitory concentration against Angiotensin II receptor, type 1 of human adrenal membrane
T5 sequence (P30556 whole entry): T3 sequence (P34976 whole entry) with M2I, A49V, V254I, V270I, H272R, K311R, S349T, V353A

Sequence of Angiotensin II receptor (Homo sapiens) (P30556 whole entry, looked up, one chain of several): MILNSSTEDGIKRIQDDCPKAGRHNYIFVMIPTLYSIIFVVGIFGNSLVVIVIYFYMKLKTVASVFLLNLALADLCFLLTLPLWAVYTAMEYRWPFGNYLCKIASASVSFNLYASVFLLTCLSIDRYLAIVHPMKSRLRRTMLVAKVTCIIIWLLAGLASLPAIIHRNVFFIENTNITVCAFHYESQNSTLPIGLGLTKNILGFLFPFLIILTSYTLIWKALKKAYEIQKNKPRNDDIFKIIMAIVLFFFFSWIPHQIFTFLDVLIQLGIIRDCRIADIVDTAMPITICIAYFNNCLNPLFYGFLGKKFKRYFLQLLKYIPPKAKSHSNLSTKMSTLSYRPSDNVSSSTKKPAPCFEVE

SMILES | IC50 [1] [nM] | IC50 [2] [nM] | IC50 [3] [nM] | IC50 [4] [nM] | IC50 [5] [nM] | Ratio (Oryctolagus cuniculus) | Ratio [6] | Ratio [7] | IC50 [8] [nM]
CCCc1nc2ccc(NC(=O)NC(C)C)cc2c(=O)n1Cc1ccc(-c2ccccc2S(=O)(=O)NC(=O)c2ccc(CC)cc2F)cc1F | 4.4 | 0.21 | 0.2 | 0.28 | 0.11 | 1.4 | 5.3 | 2.3 | 0.84
CCc1nc2ccc(NC(=O)N(C)C(C)C)cc2c(=O)n1Cc1ccc(-c2ccccc2S(=O)(=O)NC(=O)OCCC(C)C)cc1F | 9.2 | 0.3 | 0.62 | 0.2 | 0.3 | 0.33 | 0.9 | 1.1 | 10
CCc1nc2ccc(NC(=O)N3CCOCC3)cc2c(=O)n1Cc1ccc(-c2ccccc2S(=O)(=O)NC(=O)OCCC(C)C)cc1F | 65 | 0.95 | 2 | 0.31 | 0.66 | 0.16 |  | 1.5 | 18
CCc1nc2ccc(NC(=O)N(C)C(C)C)cc2c(=O)n1Cc1ccc(-c2ccccc2S(=O)(=O)NC(=O)OCC=C(C)C)cc1F | 9.3 | 1.04 | 0.77 | 0.75 | 0.39 | 0.97 | 0.62 | 2.7 | 14.7
Cc1nc2ccc(NC(=O)NC(C)C)cc2c(=O)n1Cc1ccc(-c2ccccc2S(=O)(=O)NC(=O)OCCC(C)C)cc1F | 11 | 0.63 | 1.2 | 0.7 | 0.5 | 0.59 | 0.93 | 1.2 | 15
CCCCOC(=O)NS(=O)(=O)c1ccccc1-c1ccc(Cn2c(CCCC)nc3ccc(NC(=O)N(C)C(C)C)cc3c2=O)cc1 | 60 |  | 0.24 | 2.4 |  |  |  |  | 
CCNC(=O)Nc1ccc2nc(CC)n(Cc3ccc(-c4ccccc4S(=O)(=O)NC(=O)c4ccccc4F)cc3F)c(=O)c2c1 | 65 | 4.5 | 4 | 1.6 | 3.9 | 0.46 | 1.1 | 1.4 | 59
CCc1nc2ccc(NC(=O)NC(C)C)cc2c(=O)n1Cc1ccc(-c2ccccc2S(=O)(=O)NC(=O)OCCC2CC2)cc1F | 6.5 | 0.8 | 0.92 | 0.56 | 0.64 | 0.61 | 0.9 | 0.92 | 7.2
CCCCc1nc2ccc(NC(=O)N(C)C(C)C)cc2c(=O)n1Cc1ccc(-c2ccccc2S(=O)(=O)NC(=O)OCCC2CC2)cc1F | 7.8 | 0.36 | 0.13 | 0.29 | 0.23 | 2.5 | 7.6 | 1.5 | 1.2
CCCCCN(C(=O)c1ccccc1)c1ccc2nc(CCC)n(Cc3ccc(-c4ccccc4-c4nn[nH]n4)cc3)c(=O)c2c1 | 7 |  | 1.5 |  |  |  |  |  | 
CCNC(=O)Nc1ccc2nc(CC)n(Cc3ccc(-c4ccccc4S(=O)(=O)NC(=O)OCCC4CC4)cc3F)c(=O)c2c1 | 9.8 | 0.8 | 0.73 | 0.56 | 0.64 | 0.97 | 0.77 | 0.92 | 12
CCCc1nc2ccc(NC(=O)N3CCOCC3)cc2c(=O)n1Cc1ccc(-c2ccccc2S(=O)(=O)NC(=O)OCCC(C)C)cc1F | 3.3 | 0.5 | 0.24 | 0.48 | 0.13 | 2.3 | 4.7 | 4.3 | 0.71
Cc1nc2ccc(NC(=O)N(C)C(C)C)cc2c(=O)n1Cc1ccc(-c2ccccc2S(=O)(=O)NC(=O)OCCC(C)C)cc1F | 12.5 | 0.72 | 2.3 | 1.05 | 0.58 | 0.45 | 0.47 | 1.24 | 26.5
CCCCOC(=O)NS(=O)(=O)c1ccccc1-c1ccc(Cn2c(CC)nc3ccc(NC(=O)N4CCOCC4)cc3c2=O)c(F)c1 | 32 | 2.5 | 3.8 | 1.3 | 1.3 | 0.38 | 1 | 2.2 | 33
CCc1ccc(C(=O)NS(=O)(=O)c2ccccc2-c2ccc(Cn3c(CC)nc4ccc(NC(=O)N(C)C(C)C)cc4c3=O)c(F)c2)cc1 | 8.9 | 0.93 | 0.54 | 0.25 | 0.14 | 1.6 | 1.6 | 2.5 | 5.8
CCc1nc2ccc(NC(=O)c3ccccn3)cc2c(=O)n1Cc1ccc(-c2ccccc2S(=O)(=O)NC(=O)OCCC(C)C)cc1F | 37 | 0.63 | 2.3 | 1.8 | 1.3 | 0.79 | 0.47 | 2.5 | 85
CCCc1nc2ccc(NC(=O)NC(C)C)cc2c(=O)n1Cc1ccc(-c2ccccc2S(=O)(=O)NC(=O)COCC(C)C)cc1F | 3.5 | 0.38 | 0.52 | 1 | 0.17 | 1.7 | 2.3 | 2.1 | 1.5
CCc1nc2ccc(NC(=O)N(C)C(C)C)cc2c(=O)n1Cc1ccc(-c2ccccc2S(=O)(=O)NC(=O)COCC(C)C)cc1F | 11 | 0.61 | 2.2 | 0.21 | 2 | 0.1 | 0.18 | 0.3 | 65
CCCCOC(=O)NS(=O)(=O)c1ccccc1-c1ccc(Cn2c(CCCC)nc3ccc(NC(=O)N(C)C(C)C)cc3c2=O)c(F)c1 | 7.7 | 0.77 | 0.19 | 0.44 | 0.25 | 2.7 | 8.7 | 3.2 | 0.89
